Patent publication US10005808B2, “Crystal of alkali metal N-acetylneuraminate anhydrate, and process for producing same” (KYOWA HAKKO BIO CO., LTD., priority 2014, dated 2018)

How the values were obtained:
[1] = Measurement of degree of solubility in water (HPLC of supernatant); type: physicochemical; conditions: various temperatures, FIG. 5 / FIG. 10, result in words
Method: (2) Measurement of Degree of Solubility
A crystal of NeuAc sodium salt anhydrate, a crystal of NeuAc potassium salt anhydrate, or a crystal of known NeuAc dihydrate was added to water adjusted to respective temperatures until each crystal was caused to remain undissolved and after keeping the solution for a sufficient time under stirring, the supernatant containing no crystal was collected and measured for the concentration by using the following HPLC analysis conditions.
Guard column: Shodex SUGAR SH-G ϕ6.0×50 mm
Column: SUGAR SH1011 ϕ8.0×300 mm×2 columns in series
Column temperature: 60° C.
Buffer: an aqueous 0.005 mol/L sulfuric acid solution
Flow velocity: 0.6 mL/min
Detector: UV detector (wavelength: 210 nm)
The degrees of solubility in water of the crystal of NeuAc sodium salt anhydrate obtained above and a crystal of NeuAc dihydrate are illustrated in FIG. 5.
The degrees of solubility in water of the crystal of NeuAc potassium salt anhydrate obtained above and a crystal of NeuAc dihydrate are illustrated in FIG. 10.

[2] = pH of aqueous solution of the crystal at 100 g/L; type: physicochemical
Method: As for the pH, an aqueous solution at 100 g/L in terms of NeuAc sodium salt was measured.
As for the pH, an aqueous solution at 100 g/L in terms of NeuAc potassium salt was measured.

[3] = Weight change (moisture absorption) under an atmosphere of 25° C. and humidity 66%; type: physicochemical; conditions: humidity 66%; for weight increase due to moisture absorption (in words): up to 24 hours
Method: With respect to the crystal of NeuAc sodium salt anhydrate and the noncrystalline amorphous of NeuAc sodium salt acquired in Reference Example 1, the weight change under an atmosphere of 25° C. and humidity 66% was compared, and the results are shown in Table 3.
With respect to the crystal of NeuAc potassium salt anhydrate and the noncrystalline amorphous of NeuAc potassium salt acquired in Reference Example 2, the weight change under an atmosphere of 25° C. and humidity 66% was compared, and the results are shown in Table 10.

[4] = Degree of coloration when stored in a closed system at 60° C. (transmittance T% 430 nm); type: physicochemical
Method: (§1) With respect to the crystal of NeuAc sodium salt anhydrate and a crystal of known NeuAc dihydrate, the degree of coloration when stored in a closed system at 60° C. was compared, and the results are shown in Table 7. The degree of coloration is expressed by transmittance T % 430 nm=100×10^−A (A=Abs: 430 nm, 1 cm).
as §1, with “potassium” for “sodium”, “14.” for “7.”

[5] = normal temperature / storage; cited from earlier work
[6] = normal temperature; cited from earlier work

| Structure (SMILES) | degree of solubility in water compared with crystal of known NeuAc dihydrate [1] | coloration during storage compared with crystal of known NeuAc dihydrate (in words) [4] | Transmittance T % 430 nm ([4]; elapsed time 0 days, Table 7) [%] | Transmittance T % 430 nm ([4]; elapsed time 3 days, Table 7) [%] | Transmittance T % 430 nm ([4]; elapsed time 6 days, Table 7) [%] | storage stability (in words) [5] | Transmittance T % 430 nm ([4]; elapsed time 0 days, Table 14) [%] | Transmittance T % 430 nm ([4]; elapsed time 3 days, Table 14) [%] | Transmittance T % 430 nm ([4]; elapsed time 6 days, Table 14) [%] | further results |
| --- | --- | --- | --- | --- | --- | --- | --- | --- | --- | --- |
| CC(=O)N[C@H]1[C@H]([C@H](O)[C@H](O)CO)O[C@](O)(C(=O)[O-])C[C@@H]1O.[Na+] [Crystal of sodium salt, NeuAc sodium salt anhydrate] | excellent solubility | extremely low | 99.98 | 100.0 | 100.0 |  |  |  |  | pH ([2]; aqueous solution at 100 g/L in terms of NeuAc sodium salt, listed as Example 1): 6.74; pH ([2]; aqueous solution at 100 g/L in terms of NeuAc sodium salt, listed as Example 2): 6.8; Rate of Weight Change ([3]; elapsed time 0 h, Table 3): 0.00%; Rate of Weight Change ([3]; elapsed time 3 h, Table 3): −0.04%; Rate of Weight Change ([3]; elapsed time 7 h, Table 3): −0.02%; Rate of Weight Change ([3]; elapsed time 24 h, Table 3): −0.04%; weight increase due to moisture absorption (in words) ([3]; listed as crystal of NeuAc sodium salt anhydrate): a weight increase was not recognized |
| CC(=O)N[C@H]1[C@H]([C@H](O)[C@H](O)CO)OC(O)(C(=O)[O-])C[C@@H]1O.O.O.O.[Na+] (some centres unmarked) [NeuAc sodium salt trihydrate] |  |  |  |  |  | high storage stability at normal temperature |  |  |  |  |
| CC(=O)N[C@H]1[C@H]([C@H](O)[C@H](O)CO)OC(O)(C(=O)[O-])C[C@@H]1O.[K+] (some centres unmarked) [Reference Example 2, NeuAc potassium salt, reference compound] |  |  |  |  |  |  |  |  |  | weight increase due to moisture absorption (in words) ([3]; listed as noncrystalline amorphous of NeuAc potassium salt, potassium salt): marked weight increase due to moisture absorption and deliquesced when 24 hours had passed |
| CC(=O)N[C@H]1[C@H]([C@H](O)[C@H](O)CO)OC(O)(C(=O)[O-])C[C@@H]1O.[K+] (some centres unmarked) [Crystal of potassium salt, NeuAc potassium salt anhydrate] | excellent solubility | extremely low |  |  |  |  | 99.90 | 99.73 | 99.63 | pH ([2]; aqueous solution at 100 g/L in terms of NeuAc potassium salt, listed as Example 4): 6.6; pH ([2]; aqueous solution at 100 g/L in terms of NeuAc potassium salt, listed as Example 5): 6.5; Rate of Weight Change ([3]; elapsed time 0 h, Table 10): 0.00%; Rate of Weight Change ([3]; elapsed time 3 h, Table 10): 0.06%; Rate of Weight Change ([3]; elapsed time 7 h, Table 10): 0.00%; Rate of Weight Change ([3]; elapsed time 24 h, Table 10): −0.06%; weight increase due to moisture absorption (in words) ([3]; listed as crystal of NeuAc potassium salt anhydrate): a weight increase was not recognized |
| CC(=O)N[C@H]1[C@H]([C@H](O)[C@H](O)CO)O[C@](O)(C(=O)[O-])C[C@@H]1O.[Na+] [Reference Example 1, NeuAc sodium salt, reference compound] |  |  |  |  |  |  |  |  |  | weight increase due to moisture absorption (in words) ([3]; listed as noncrystalline amorphous of NeuAc sodium salt, sodium salt): marked weight increase due to moisture absorption and deliquesced when 24 hours had passed |
| CC(=O)N[C@H]1[C@H]([C@H](O)[C@H](O)CO)OC(O)(C(=O)O)C[C@@H]1O (some centres unmarked) [Crystal of dihydrate, N-Acetylneuraminic acid, reference compound] |  |  | 100.1 | 73.26 | 50.46 | gradually discolored to dark brown | 100.1 | 73.26 | 50.46 | degree of solubility [6]: about 100 g/L |
